Organism: Rattus norvegicus
Assay: Open TG-GATES - Regimen: Single
Assay type: toxicity, organism-based, Sprague-Dawley
Parameters: regimen Single, gender Male, age 6 weeks
Details: in vivo, ip, route intraperitoneal injection; for Bas / Eos / Ht / Lym / MCHC / MCV / Mono / Neu / PT / Plat / RBC / Ret / WBC / APTT / Fbg / Hb / MCH: tissue Blood; for KIDNEY_L / KIDNEY_R / KIDNEY_TOTAL: tissue Kidney; for LIVER: tissue Liver; for ALP / ALT / AST / BUN / CRE / DBIL / IP / K / LDH / PL / RALB / TBIL / TC / TG / TP / gamma-GTP / GLC / Ca / Na: tissue Plasma
[1] = 0 mg/kg, 3 h, dose 0 ug/Kg, dose level Control
[2] = 0 mg/kg, 6 h, dose 0 ug/Kg, dose level Control
[3] = 0 mg/kg, 9 h, dose 0 ug/Kg, dose level Control
[4] = 0 mg/kg, 24 h, dose 0 ug/Kg, dose level Control
[5] = 0.01 mg/kg, 3 h, dose 10 ug/Kg, dose level Low
[6] = 0.01 mg/kg, 6 h, dose 10 ug/Kg, dose level Low
[7] = 0.01 mg/kg, 9 h, dose 10 ug/Kg, dose level Low
[8] = 0.01 mg/kg, 24 h, dose 10 ug/Kg, dose level Low

LPS
TERMINAL_BW [1]: 194.6 g
Bas [1]: 0.3%
Eos [1]: 0.7%
Ht [1]: 40.7%
Lym [1]: 72%
MCHC [1]: 32.8%
MCV [1]: 63.3 fL
Mono [1]: 4%
Neu [1]: 21.3%
PT [1]: 15.7 s
Plat [1]: 123.5 x10_4/uL
RBC [1]: 644.3 x10_4/ul
Ret [1]: 9.4%
WBC [1]: 91.5 x10_2/uL
KIDNEY_L [1]: 0.9 g
KIDNEY_R [1]: 0.9 g
KIDNEY_TOTAL [1]: 1.8 g
LIVER [1]: 8.6 g
ALP [1]: 1094.7 IU/L
ALT [1]: 41.7 IU/L
AST [1]: 78.3 IU/L
BUN [1]: 8.7 mg/dL
CRE [1]: 0.2 mg/dL
DBIL [1]: 0.01 mg/dL
IP [1]: 9.2 mg/dL
K [1]: 4 meq/L
LDH [1]: 110 IU/L
PL [1]: 136.3 mg/dL
RALB [1]: 2.5 g/dL
TBIL [1]: 0.0467 mg/dL
TC [1]: 76 mg/dL
TG [1]: 41.3 mg/dL
TP [1]: 5.3 g/dL
gamma-GTP [1]: 1 IU/L
TERMINAL_BW [2]: 195.4 g
APTT [2]: 18.1 s
Bas [2]: 0%
Eos [2]: 0.3%
Fbg [2]: 298.7 mg/dL
Hb [2]: 12.9 g/dL
Ht [2]: 39.5%
Lym [2]: 71.3%
MCHC [2]: 32.6%
MCV [2]: 65.8 fL
Mono [2]: 2.3%
Neu [2]: 25%
PT [2]: 15.7 s
Plat [2]: 114.9 x10_4/uL
RBC [2]: 601.3 x10_4/ul
Ret [2]: 9.6%
WBC [2]: 101.7 x10_2/uL
KIDNEY_L [2]: 0.9 g
KIDNEY_R [2]: 0.9 g
KIDNEY_TOTAL [2]: 1.7 g
LIVER [2]: 7.9 g
ALP [2]: 1269.3 IU/L
ALT [2]: 37.7 IU/L
AST [2]: 75.7 IU/L
BUN [2]: 7.3 mg/dL
CRE [2]: 0.2 mg/dL
DBIL [2]: 0.01 mg/dL
GLC [2]: 178.3 mg/dL
IP [2]: 10 mg/dL
K [2]: 3.7 meq/L
LDH [2]: 74 IU/L
PL [2]: 138.7 mg/dL
RALB [2]: 2.5 g/dL
TBIL [2]: 0.0433 mg/dL
TC [2]: 79.3 mg/dL
TG [2]: 24.7 mg/dL
TP [2]: 5.4 g/dL
gamma-GTP [2]: 1 IU/L
TERMINAL_BW [3]: 191.3 g
APTT [3]: 17.1 s
Bas [3]: 0%
Eos [3]: 1%
Fbg [3]: 304.3 mg/dL
Ht [3]: 38.4%
Lym [3]: 63.3%
MCHC [3]: 32.8%
Mono [3]: 2%
Neu [3]: 33.7%
Plat [3]: 116.1 x10_4/uL
RBC [3]: 624 x10_4/ul
Ret [3]: 8.1%
WBC [3]: 71.4 x10_2/uL
KIDNEY_L [3]: 0.9 g
KIDNEY_R [3]: 0.9 g
KIDNEY_TOTAL [3]: 1.8 g
LIVER [3]: 7 g
ALP [3]: 1080.7 IU/L
ALT [3]: 48 IU/L
AST [3]: 79 IU/L
BUN [3]: 8.3 mg/dL
CRE [3]: 0.2 mg/dL
Ca [3]: 10 mg/dL
DBIL [3]: 0.0033 mg/dL
GLC [3]: 165 mg/dL
IP [3]: 9.5 mg/dL
K [3]: 3.8 meq/L
LDH [3]: 53.7 IU/L
PL [3]: 124.7 mg/dL
RALB [3]: 2.4 g/dL
TBIL [3]: 0.0467 mg/dL
TC [3]: 73.3 mg/dL
TG [3]: 13.3 mg/dL
TP [3]: 5.2 g/dL
gamma-GTP [3]: 1 IU/L
TERMINAL_BW [4]: 209.1 g
Bas [4]: 0.3%
Eos [4]: 1.3%
Fbg [4]: 302.3 mg/dL
Hb [4]: 12.9 g/dL
Ht [4]: 39.4%
Lym [4]: 76.3%
MCH [4]: 21 pg
MCHC [4]: 32.8%
MCV [4]: 64 fL
Mono [4]: 3.7%
Neu [4]: 17.3%
PT [4]: 15.2 s
Plat [4]: 115.4 x10_4/uL
RBC [4]: 616.3 x10_4/ul
Ret [4]: 8.6%
WBC [4]: 115.5 x10_2/uL
KIDNEY_L [4]: 0.9 g
KIDNEY_R [4]: 0.9 g
KIDNEY_TOTAL [4]: 1.8 g
LIVER [4]: 9.7 g
ALP [4]: 1572.7 IU/L
ALT [4]: 48.3 IU/L
AST [4]: 78 IU/L
BUN [4]: 15 mg/dL
CRE [4]: 0.2 mg/dL
DBIL [4]: 0.01 mg/dL
GLC [4]: 170.7 mg/dL
IP [4]: 8.6 mg/dL
K [4]: 4.4 meq/L
LDH [4]: 86.7 IU/L
PL [4]: 171.3 mg/dL
RALB [4]: 2.6 g/dL
TBIL [4]: 0.0533 mg/dL
TC [4]: 98.7 mg/dL
TG [4]: 55.3 mg/dL
TP [4]: 5.7 g/dL
gamma-GTP [4]: 1 IU/L
TERMINAL_BW [5]: 192 g
Bas [5]: 0%
Eos [5]: 0%
Fbg [5]: 249 mg/dL
Hb [5]: 12.9 g/dL
Lym [5]: 66%
MCH [5]: 21 pg
MCHC [5]: 32.9%
MCV [5]: 63.9 fL
Mono [5]: 2.3%
Neu [5]: 30.3%
PT [5]: 15.6 s
Plat [5]: 106.2 x10_4/uL
RBC [5]: 614.3 x10_4/ul
Ret [5]: 9.4%
WBC [5]: 59.5 x10_2/uL
KIDNEY_L [5]: 0.9 g
KIDNEY_R [5]: 0.9 g
KIDNEY_TOTAL [5]: 1.8 g
LIVER [5]: 8.5 g
ALP [5]: 1371 IU/L
ALT [5]: 39.3 IU/L
AST [5]: 80.7 IU/L
BUN [5]: 9.3 mg/dL
CRE [5]: 0.2 mg/dL
DBIL [5]: 0.0033 mg/dL
GLC [5]: 151.7 mg/dL
IP [5]: 9.1 mg/dL
K [5]: 3.9 meq/L
LDH [5]: 87.7 IU/L
PL [5]: 141.3 mg/dL
RALB [5]: 2.4 g/dL
TBIL [5]: 0.0433 mg/dL
TC [5]: 75.3 mg/dL
TG [5]: 50.7 mg/dL
TP [5]: 5.2 g/dL
gamma-GTP [5]: 0.7 IU/L
TERMINAL_BW [6]: 188.9 g
APTT [6]: 20.9 s
Bas [6]: 0%
Eos [6]: 1%
Fbg [6]: 308 mg/dL
Ht [6]: 40.2%
Lym [6]: 27%
MCH [6]: 21 pg
MCV [6]: 63.3 fL
Mono [6]: 1%
Neu [6]: 71%
Plat [6]: 84.5 x10_4/uL
RBC [6]: 634.3 x10_4/ul
Ret [6]: 7.8%
WBC [6]: 67.1 x10_2/uL
KIDNEY_L [6]: 0.9 g
KIDNEY_R [6]: 0.9 g
KIDNEY_TOTAL [6]: 1.7 g
LIVER [6]: 7.6 g
ALP [6]: 1287.3 IU/L
ALT [6]: 58.7 IU/L
AST [6]: 96.7 IU/L
BUN [6]: 8.3 mg/dL
CRE [6]: 0.2 mg/dL
Ca [6]: 9.9 mg/dL
DBIL [6]: 0.0167 mg/dL
GLC [6]: 150.7 mg/dL
IP [6]: 9.5 mg/dL
K [6]: 3.9 meq/L
LDH [6]: 75.3 IU/L
Na [6]: 139.7 meq/L
PL [6]: 154.3 mg/dL
RALB [6]: 2.5 g/dL
TBIL [6]: 0.0667 mg/dL
TC [6]: 91.7 mg/dL
TG [6]: 27.3 mg/dL
TP [6]: 5.4 g/dL
gamma-GTP [6]: 1.7 IU/L
TERMINAL_BW [7]: 187.9 g
APTT [7]: 16.6 s
Bas [7]: 0%
Eos [7]: 0%
Fbg [7]: 373 mg/dL
Ht [7]: 40.9%
Lym [7]: 58.3%
MCHC [7]: 33%
MCV [7]: 64.5 fL
Mono [7]: 2%
Neu [7]: 38.7%
PT [7]: 16 s
Plat [7]: 105.1 x10_4/uL
RBC [7]: 633.7 x10_4/ul
Ret [7]: 8.7%
WBC [7]: 86.6 x10_2/uL
KIDNEY_L [7]: 0.9 g
KIDNEY_R [7]: 0.8 g
KIDNEY_TOTAL [7]: 1.7 g
LIVER [7]: 7.1 g
ALP [7]: 1456.3 IU/L
ALT [7]: 37 IU/L
AST [7]: 77.3 IU/L
BUN [7]: 6.7 mg/dL
CRE [7]: 0.2 mg/dL
DBIL [7]: 0.0067 mg/dL
GLC [7]: 162.7 mg/dL
IP [7]: 9.8 mg/dL
K [7]: 3.6 meq/L
LDH [7]: 61 IU/L
Na [7]: 143.7 meq/L
PL [7]: 151 mg/dL
RALB [7]: 2.5 g/dL
TBIL [7]: 0.0567 mg/dL
TC [7]: 89 mg/dL
TG [7]: 21 mg/dL
TP [7]: 5.4 g/dL
gamma-GTP [7]: 1 IU/L
TERMINAL_BW [8]: 198.5 g
Bas [8]: 0%
Eos [8]: 1%
Fbg [8]: 435.3 mg/dL
Hb [8]: 13.6 g/dL
Lym [8]: 66.3%
MCH [8]: 21 pg
MCHC [8]: 32.7%
MCV [8]: 64.2 fL
Mono [8]: 2.3%
Neu [8]: 29%
PT [8]: 14.6 s
Plat [8]: 77.7 x10_4/uL
RBC [8]: 646.7 x10_4/ul
Ret [8]: 7.3%
WBC [8]: 85.5 x10_2/uL
KIDNEY_L [8]: 0.9 g
KIDNEY_R [8]: 0.9 g
KIDNEY_TOTAL [8]: 1.8 g
LIVER [8]: 9.1 g
ALP [8]: 2203 IU/L
ALT [8]: 39.3 IU/L
AST [8]: 71.7 IU/L
BUN [8]: 16.3 mg/dL
CRE [8]: 0.2 mg/dL
DBIL [8]: 0.01 mg/dL
GLC [8]: 189 mg/dL
IP [8]: 8.8 mg/dL
K [8]: 4.5 meq/L
LDH [8]: 77.3 IU/L
PL [8]: 168 mg/dL
RALB [8]: 2.6 g/dL
TBIL [8]: 0.0633 mg/dL
TC [8]: 94.7 mg/dL
TG [8]: 52.3 mg/dL
TP [8]: 5.6 g/dL
gamma-GTP [8]: 1 IU/L
TERMINAL_BW (0.3 mg/kg, 3 h, dose 300 ug/Kg, dose level Middle): 194.5 g
